Measured values from ChEMBL document CHEMBL1137578, “Small molecules block the polymerization of Z alpha1-antitrypsin and increase the clearance of intracellular aggregates” (2007).
Each block holds one molecule with its values, some of them ahead of it. Active and inactive are the calls of the source. The rule behind the calls is not given here.

How the values were obtained:
Homo sapiens [1] = species: Homo sapiens; assay: Inhibition of polymerization of alpha-1-antitrypsin Z mutant at 10 uM
[2] = biological target: T1, Alpha-1-antichymotrypsin (Homo sapiens) (UniProt P01011); assay: Inhibition of polymerization of alpha-1 antichymotrypsin at 200 uM
T1 sequence (whole entry): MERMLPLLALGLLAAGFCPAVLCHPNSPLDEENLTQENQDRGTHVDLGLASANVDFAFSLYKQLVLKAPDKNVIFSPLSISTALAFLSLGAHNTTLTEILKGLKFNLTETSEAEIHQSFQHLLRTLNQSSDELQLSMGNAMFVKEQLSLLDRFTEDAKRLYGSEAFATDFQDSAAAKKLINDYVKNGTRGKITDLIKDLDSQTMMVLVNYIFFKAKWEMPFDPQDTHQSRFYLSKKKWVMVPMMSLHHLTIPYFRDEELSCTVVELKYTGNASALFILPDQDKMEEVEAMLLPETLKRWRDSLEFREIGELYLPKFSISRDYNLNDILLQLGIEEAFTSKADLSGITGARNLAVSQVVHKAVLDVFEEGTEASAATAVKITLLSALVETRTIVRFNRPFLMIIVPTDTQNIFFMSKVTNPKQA

Homo sapiens [3] = species: Homo sapiens; assay: Inhibition of polymerization of alpha-1-antitrypsin Z mutant at 20 uM
[4] = (§1) Reduction in intracellular accumulation of alpha-1 antitrypsin Z mutant in mouse Hepa1a cells at 100 uM after 16 hrs; type: functional; parameters: scale not given: the % may be the effect or the level left
Homo sapiens [5] = species: Homo sapiens; assay: Inhibition of polymerization of alpha-1-antitrypsin Z mutant at 50 uM
Homo sapiens [6] = species: Homo sapiens; assay: Inhibition of polymerization of alpha-1-antitrypsin Z mutant
Homo sapiens [7] = species: Homo sapiens; assay: Inhibition of polymerization of alpha-1-antitrypsin Z mutant at 5 uM
Mus musculus = species: Mus musculus; assay: as §1; type: functional

SMILES: Oc1ccc(-c2n[nH]cc2-c2cnn(-c3ccccc3)c2)c(O)c1O
Activity (Homo sapiens [1]): Active

SMILES: Cc1cc(NS(=O)(=O)c2cccc([N+](=O)[O-])c2)cc(C)c1O
Activity (Homo sapiens [1]): Active

SMILES: Cc1cc(S(=O)(=O)Nc2cc(C)c(O)c(C)c2)c(C)s1
Activity [2]: inactive | Activity (Homo sapiens [3]): Active | Activity [4]: 70% | Activity (Homo sapiens [5]): Active

SMILES: Oc1ccc(-c2n[nH]cc2-c2ccn(-c3ccccc3)n2)c(O)c1O
Activity (Homo sapiens [1]): Active

SMILES: Cc1ccc(S(=O)(=O)Nc2cc(C)c(O)c(Sc3nnc[nH]3)c2)cc1
Activity (Homo sapiens [1]): Active | Activity (Homo sapiens [7]): Active

SMILES: O=C1c2ccc(O)cc2OC(c2ccc(O)c(O)c2O)C1O (configuration not stated)
Activity (Homo sapiens [6]): Active

SMILES: CSc1ccc(C(Nc2ccccn2)c2oc(CO)cc(=O)c2O)cc1 (configuration not stated)
Activity (Homo sapiens [6]): Active

SMILES: COc1c(C)cc(NS(=O)(=O)c2ccc(SC)cc2)cc1C
Activity (Mus musculus): inactive

SMILES: Cc1cc(NS(=O)(=O)c2ccc([N+](=O)[O-])cc2)cc(C)c1O
Activity (Homo sapiens [1]): Active

SMILES: Cc1ccc(S(=O)(=O)Nc2cc(C)c(O)c(Sc3nnc(C)[nH]3)c2)cc1
Activity (Homo sapiens [1]): Active | Activity (Mus musculus): inactive | Activity (Homo sapiens [7]): Active

Next, values leading:

Activity (Homo sapiens [6]): Active
SMILES: COc1ccccc1Nc1ccc2c(O)cc(S(=O)(=O)O)cc2c1

Activity (Homo sapiens [1]): Active | Activity (Homo sapiens [7]): Active
SMILES: Cc1cc(NS(=O)(=O)c2ccccc2)cc(Br)c1O

Activity (Homo sapiens [1]): Active
SMILES: Cc1cc(NS(=O)(=O)c2ccccc2)cc(Cl)c1O

Activity (Homo sapiens [5]): Active
SMILES: Cc1cc(NS(=O)(=O)c2ccccc2)cc(C)c1O

Activity (Homo sapiens [6]): Active
SMILES: NS(=O)(=O)c1ccc(Nc2nc(-c3ccc(O)cc3O)cs2)cc1
